Laboratory results taken from patent publication US20090291968A1, “SUBSTITUTED INDAZOLE DERIVATIVES, THEIR MANUFACTURE AND USE AS PHARMACEUTICAL AGENTS” (priority 2006, published 2009).

These compounds were tested on HCT 116 cells (assay: CellTiter-Glo assay in HCT 116 cells (cell viability)). Conditions: 120 h; HCT 116 human colon carcinoma cells, 5 days incubation, CellTiter-Glo luminescence.
Type: cell-based
Procedure: The CellTiter-Glo™ Luminescent Cell Viability Assay (Promega) is a homogeneous method of determining the number of viable cells in culture based on quantitation of the ATP present, which signals the presence of metabolically active cells.
HCT 116 cells (human colon carcinoma, ATCC-No. CCl-247) were cultivated in RPMI 1640 medium with GlutaMAX™ I (Invitrogen, Cat-No. 61870-010), 2,5% Fetal Calf Serum (FCS, Sigma Cat-No. F4135 (FBS)); 100 Units/ml penicillin/100 μg/ml streptomycin (=Pen/Strep from Invitrogen Cat. No. 15140). For the assay the cells were seeded in 384 well plates, 1000 cells per well, in the same medium. The next day the test compounds were added in various concentrations ranging from 30 μM to 0.0015 μM (10 concentrations, 1:3 diluted). After 5 days the CellTiter-Glo™ assay was done according to the instructions of the manufacturer (CellTiter-Glo™ Luminescent Cell Viability Assay, from Promega). In brief: the cell-plate was equilibrated to room temperature for approximately 30 minutes and than the CellTiter-Glo™ reagent was added. The contents were carefully mixed for 15 minutes to induce cell lysis. After 45 minutes the luminescent signal was measured in Victor 2, (scanning multiwell spectrophotometer, Wallac).
1st. Day: • Medium: RPMI 1640 with GlutaMAX™ I (Invitrogen, Cat-Nr. 61870), 5% FCS (Sigma Cat.-No. F4135), Pen/Strep (Invitrogen, Cat No. 15140). • HCT116 (ATCC-No. CCl-247): 1000 cells in 60 μl per well of 384 well plate (Greiner 781098, μClear-plate white) • After seeding incubate plates 24 h at 37° C., 5% CO2 2nd. Day: Induction (Treatment with Compounds, 10 Concentrations):
In order to achieve a final concentration of 30 μM as highest concentration 3.5 μl of 10 mM compound stock solution were added directly to 163 μl media. Then step e) of the dilution procedure described below, was followed.
In order to achieve the second highest to the lowest concentrations, a serial dilution with dilution steps of 1:3 was followed according to the procedure (a-e) as described here below: • a) for the second highest concentration add 10 μl of 10 mM stock solution of compound to 20 μl dimethylsulfoxide (DMSO) • b) dilute 8×1:3 (always 10 μl to 20 μl DMSO) in this DMSO dilution row (results in 9 wells with concentrations from 3333.3 μM to 0.51 μM) • c) dilute each concentration 1:47.6 (3.5 μl compound dilution to 163 μl media) • e) add 10 μl of every concentration to 60 μl media in the cell plate resulting in final concentration of DMSO: 0.3% in every well and resulting in 10 final concentration of compounds ranging from 30 μM to 0.0015 μM. • Each compound is tested in triplicate. • Incubate 120 h (5 days) at 37° C., 5% CO2
• Add 30 μl CellTiter-Glo™ Reagent (prepared from CellTiter-Glo™ Buffer and CellTiter-Glo™ Substrate (lyophilized) purchased from Promega) per well, • shake 15 minutes at room temperature • incubate further 45 minutes at room temperature without shaking
• Victor 2 scanning multiwell spectrophotometer (Wallac), Luminescence mode (0.5 sec/read, 477 nm) • Determine IC50 using a non-linear curve fit (XLfit software (ID Business Solution Ltd., Guilford, Surrey, UK))

| Structure (SMILES) | IC50 [nM] |
| --- | --- |
| CCN1C(=O)C(C)(C)c2cc3nc(-c4n[nH]c5cc(-c6cccs6)ccc45)[nH]c3cc21 [Example 16, 5-Ethyl-7,7-dimethyl-2-(6-thiophen-2-yl-1H-indazol-3-yl)-5,7-dihydro-3H-imidazo[4,5-f]indol-6-one] | 25 to 1500 |
| CCN1C(=O)C(C)(C)c2cc3nc(-c4n[nH]c5cc(/C=C/c6ccc(Cl)cc6)ccc45)[nH]c3cc21 [Example 18, 2-{6-[(E)-2-(4-Chloro-phenyl)-vinyl]-1H-indazol-3-yl}-5-ethyl-7,7-dimethyl-5,7-dihydro-3H-imidazo[4,5-f]indol-6-one] | 25 to 1500 |
| CCN1C(=O)C(C)(C)c2cc3nc(-c4n[nH]c5cc(-c6cccc(N(C)C)c6)ccc45)[nH]c3cc21 [Example 21, 2-[6-(3-Dimethylamino-phenyl)-1H-indazol-3-yl]-5-ethyl-7,7-dimethyl-5,7-dihydro-3H-imidazo[4,5-f]indol-6-one] | 25 to 1500 |
| CCN1C(=O)C(C)(C)c2cc3nc(-c4n[nH]c5cc(-c6cccc([N+](=O)[O-])c6)ccc45)[nH]c3cc21 [Example 22, 5-Ethyl-7,7-dimethyl-2-[6-(3-nitro-phenyl)-1H-indazol-3-yl]-5,7-dihydro-3H-imidazo[4,5-f]indol-6-one] | 25 to 1500 |
| CCN1C(=O)C(C)(C)c2cc3nc(-c4n[nH]c5ccc(-c6ccc(OC)nc6)cc45)[nH]c3cc21 [Example 24, 5-Ethyl-2-[5-(6-methoxy-pyridin-3-yl)-1H-indazol-3-yl]-7,7-dimethyl-5,7-dihydro-3H-imidazo[4,5-f]indol-6-one; compound with acetic acid] | 25 to 1500 |
| CCN1C(=O)C(C)(C)c2cc3nc(-c4n[nH]c5ccc(-c6ccsc6)cc45)[nH]c3cc21 [Example 25, 5-Ethyl-7,7-dimethyl-2-(5-thiophen-3-yl-1H-indazol-3-yl)-5,7-dihydro-3H-imidazo[4,5-f]indol-6-one; compound with acetic acid] | 25 to 1500 |
| CCN1C(=O)C(C)(C)c2cc3nc(-c4n[nH]c5ccc(-c6cnn(C)c6)cc45)[nH]c3cc21 [Example 26, 5-Ethyl-7,7-dimethyl-2-[5-(1-methyl-1H-pyrazol-4-yl)-1H-indazol-3-yl]-5,7-dihydro-3H-imidazo[4,5-f]indol-6-one; compound with acetic acid] | 25 to 1500 |
| CCN1C(=O)C(C)(C)c2cc3nc(-c4n[nH]c5ccc(-c6cccnc6)cc45)[nH]c3cc21 [Example 27, 5-Ethyl-7,7-dimethyl-2-(5-pyridin-3-yl-1H-indazol-3-yl)-5,7-dihydro-3H-imidazo[4,5-f]indol-6-one] | 25 to 1500 |
| CCN1C(=O)C(C)(C)c2cc3nc(-c4n[nH]c5cc(-c6cncnc6)ccc45)[nH]c3cc21 [Example 32, 5-Ethyl-7,7-dimethyl-2-(6-pyrimidin-5-yl-1H-indazol-3-yl)-5,7-dihydro-3H-imidazo[4,5-f]indol-6-one] | 25 to 1500 |
| CCN1C(=O)C(C)(C)c2cc3nc(-c4n[nH]c5cc(-c6ccccn6)ccc45)[nH]c3cc21 [Example 33, 5-Ethyl-7,7-dimethyl-2-(6-pyridin-2-yl-1H-indazol-3-yl)-5,7-dihydro-3H-imidazo[4,5-f]indol-6-one] | 25 to 1500 |
| CCN1C(=O)C(C)(C)c2cc3nc(-c4n[nH]c5ccc(-c6cncnc6)cc45)[nH]c3cc21 [Example 35, 5-Ethyl-7,7-dimethyl-2-(5-pyrimidin-5-yl-1H-indazol-3-yl)-5,7-dihydro-3H-imidazo[4,5-f]indol-6-one] | 25 to 1500 |
| CCN1C(=O)C(C)(C)c2cc3nc(-c4n[nH]c5cc(-c6cn[nH]c6)ccc45)[nH]c3cc21 [Example 37, 5-Ethyl-7,7-dimethyl-2-[6-(1H-pyrazol-4-yl)-1H-indazol-3-yl]-5,7-dihydro-3H-imidazo[4,5-f]indol-6-one] | 25 to 1500 |

Continued, values first:

| IC50 [nM] | Structure (SMILES) |
| --- | --- |
| 25 to 1500 | CCN1C(=O)C(C)(C)c2cc3nc(-c4n[nH]c5cc(-c6nc[nH]n6)ccc45)[nH]c3cc21 [Example 2, 5-Ethyl-7,7-dimethyl-2-[6-(1H-[1,2,4]triazol-3-yl)-1H-indazol-3-yl]-5,7-dihydro-3H-imidazo[4,5-f]indol-6-one] |
| 576 | CCN1C(=O)C(C)(C)c2cc3nc(-c4n[nH]c5cc(/C=C/c6ccccc6)ccc45)[nH]c3cc21 [Example 5, 5-Ethyl-7,7-dimethyl-2-[6-((E)-styryl)-1H-indazol-3-yl]-5,7-dihydro-3H-imidazo[4,5-f]indol-6-one] |
| 25 to 1500 | CCN1C(=O)C(C)(C)c2cc3nc(-c4n[nH]c5cc(-c6cnn(C)c6)ccc45)[nH]c3cc21 [Example 7, 5-Ethyl-7,7-dimethyl-2-[6-(1-methyl-1H-pyrazol-4-yl)-1H-indazol-3-yl]-5,7-dihydro-3H-imidazo[4,5-f]indol-6-one] |
| 161 | CCN1C(=O)C(C)(C)c2cc3nc(-c4n[nH]c5cc(-c6cccnc6)ccc45)[nH]c3cc21 [Example 8, 5-Ethyl-7,7-dimethyl-2-(6-pyridin-3-yl-1H-indazol-3-yl)-5,7-dihydro-3H-imidazo[4,5-f]indol-6-one] |
| 25 to 1500 | CCN1C(=O)C(C)(C)c2cc3nc(-c4n[nH]c5cc(/C=C/c6ccc(-c7ccccc7)cc6)ccc45)[nH]c3cc21 [Example 9, 2-[6-((E)-2-Biphenyl-4-yl-vinyl)-1H-indazol-3-yl]-5-ethyl-7,7-dimethyl-5,7-dihydro-3H-imidazo[4,5-f]indol-6-one] |
| 25 to 1500 | CCN1C(=O)C(C)(C)c2cc3nc(-c4n[nH]c5cc(/C=C/c6ccc(OC)cc6)ccc45)[nH]c3cc21 [Example 10, 5-Ethyl-2-{6-[(E)-2-(4-methoxy-phenyl)-vinyl]-1H-indazol-3-yl}-7,7-dimethyl-5,7-dihydro-3H-imidazo[4,5-f]indol-6-one] |
| 25 to 1500 | CCN1C(=O)C(C)(C)c2cc3nc(-c4n[nH]c5cc(-c6ccc(N(C)C)cc6)ccc45)[nH]c3cc21 [Example 12, 2-[6-(4-Dimethylamino-phenyl)-1H-indazol-3-yl]-5-ethyl-7,7-dimethyl-5,7-dihydro-3H-imidazo[4,5-f]indol-6-one] |
| 328 | CCN1C(=O)C(C)(C)c2cc3nc(-c4n[nH]c5cc(-c6ccc(C(C)=O)cc6)ccc45)[nH]c3cc21 [Example 13, 2-[6-(4-Acetyl-phenyl)-1H-indazol-3-yl]-5-ethyl-7,7-dimethyl-5,7-dihydro-3H-imidazo[4,5-f]indol-6-one] |
| 25 to 1500 | CCN1C(=O)C(C)(C)c2cc3nc(-c4n[nH]c5cc(-c6ccc(OC)nc6)ccc45)[nH]c3cc21 [Example 14, 5-Ethyl-2-[6-(6-methoxy-pyridin-3-yl)-1H-indazol-3-yl]-7,7-dimethyl-5,7-dihydro-3H-imidazo[4,5-f]indol-6-one] |
| 562 | CCN1C(=O)C(C)(C)c2cc3nc(-c4n[nH]c5cc(-c6ccc7c(c6)OCO7)ccc45)[nH]c3cc21 [Example 20, 2-(6-Benzo[1,3]dioxol-5-yl-1H-indazol-3-yl)-5-ethyl-7,7-dimethyl-5,7-dihydro-3H-imidazo[4,5-f]indol-6-one] |
